Data on 18 compounds can be found in PubChem BioAssay AID330 (DTP/NCI, 2004).

“And” between values parts separate entries of the source, which are not always exact repeats. Equal entries are not always repeated. Toxic doses and inconclusive results are not listed.

The test has as its system P388 leukemia ip, CD2F1 mice, survival T/C. The test is described as follows: NCI In Vivo Anticancer Drug Screen. Data for tumor model P388 Leukemia (intraperitoneal) in CD2F1 (CDF1) mice. The conditions noted are these: endpoint: median survival time, higher = longer survival. The gist of the method: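 Mice carrying the transplanted tumor received test compound or vehicle. Survival was recorded in each group, and the value is the treated-group measurement divided by that of the vehicle-treated control group.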

[1] abbreviates: dose: 50.0 mg/kg/injection, schedule: Q01DX005 (ip), vehicle: saline with Tween-80.
Setting [2] is: dose: 100.0 mg/kg/injection, schedule: Q01DX005 (ip), vehicle: saline with Tween-80.
Where [3] appears, read: dose: 200.0 mg/kg/injection, schedule: Q01DX005 (ip), vehicle: saline with Tween-80.
[4] abbreviates: dose: 60.0 mg/kg/injection, schedule: Q01DX005 (ip), vehicle: saline with Tween-80.
[5] abbreviates: dose: 120.0 mg/kg/injection, schedule: Q01DX005 (ip), vehicle: saline with Tween-80.
[6] abbreviates: dose: 240.0 mg/kg/injection, schedule: Q01DX005 (ip), vehicle: saline with Tween-80.
Where [7] appears, read: dose: 12.5 mg/kg/injection, schedule: Q01DX009 (ip), vehicle: saline.
Setting [8] is: dose: 50.0 mg/kg/injection, schedule: Q01DX009 (ip), vehicle: saline.
Where [9] appears, read: dose: 50.0 mg/kg/injection, schedule: Q01DX009 (ip), vehicle: saline with Tween-80.
Setting [10] is: dose: 100.0 mg/kg/injection, schedule: Q01DX009 (ip), vehicle: saline with Tween-80.
Setting [11] is: dose: 200.0 mg/kg/injection, schedule: Q01DX009 (ip), vehicle: saline with Tween-80.

`CCCCNc1cc(-c2c(N)nc(N)nc2CC)ccc1[N+](=O)[O-]`: the T/C was 101 % of control under setting [1], 101 % of control under setting [2] and 94 % of control under setting [3].
As to `C/C=C1/CN2C3CC1C1(C(=O)OC)C(OC(C)=O)[C@]4(C[C@H]21)c1cc(OC)ccc1N(C)C34` (stereo not given in full), the T/C was 115 % of control (dose: 3.5 mg/kg/injection, schedule: Q01DX005 (ip), vehicle: Klucel (hydroxypropylcellulose) (HPC)); 108 % of control (dose: 7.0 mg/kg/injection, schedule: Q01DX005 (ip), vehicle: Klucel (hydroxypropylcellulose) (HPC)); 94 % of control (dose: 14.0 mg/kg/injection, schedule: Q01DX005 (ip), vehicle: Klucel (hydroxypropylcellulose) (HPC)); 100 % of control (dose: 28.0 mg/kg/injection, schedule: Q01DX005 (ip), vehicle: Klucel (hydroxypropylcellulose) (HPC)).
For the compound `COc1ccc(N/C(=C/C#N)c2ccccc2)cc1`, the T/C runs as follows: (dose: 100.0 mg/kg/injection, schedule: Q01DX001 (ip), vehicle: saline with Tween-80) 100 % of control; (dose: 200.0 mg/kg/injection, schedule: Q01DX001 (ip), vehicle: saline with Tween-80) 99 % of control; (dose: 400.0 mg/kg/injection, schedule: Q01DX001 (ip), vehicle: saline with Tween-80) 95 % of control.
On to `COC(=O)c1nnn(-c2cccc(Cl)c2)c1C(=O)c1ccc(Cl)c(Cl)c1`, for which the T/C is, setting by setting: under setting [4], 100 % of control; under setting [5], 87 % of control; under setting [6], 88 % of control.
Turning to `CC(=O)CC(=O)c1c(-c2ccccc2)n(C)c2ccccc12`, the T/C is, setting by setting: (dose: 100.0 mg/kg/injection, schedule: Q01DX001 (ip), vehicle: Klucel (hydroxypropylcellulose) (HPC)) 98 % of control; (dose: 200.0 mg/kg/injection, schedule: Q01DX001 (ip), vehicle: Klucel (hydroxypropylcellulose) (HPC)) 101 % of control; (dose: 400.0 mg/kg/injection, schedule: Q01DX001 (ip), vehicle: Klucel (hydroxypropylcellulose) (HPC)) 102 % of control.
As to `Cc1noc(NC(=O)NC(=O)c2c(F)cccc2F)c1C`, the T/C (dose: 50.0 mg/kg/injection, schedule: Q04DX002 (ip), vehicle: saline with Tween-80) was 99 % of control; the T/C (dose: 100.0 mg/kg/injection, schedule: Q04DX002 (ip), vehicle: saline with Tween-80) was 99 % of control; the T/C (dose: 200.0 mg/kg/injection, schedule: Q04DX002 (ip), vehicle: saline with Tween-80) is 100 % of control.
In the case of `Nc1ccccc1Sc1ccc2c3c(cccc13)C(=O)N(c1ccccc1)C2=O`, the T/C under setting [1] is 91 % of control, the T/C under setting [2] is 90 % of control and the T/C under setting [3] was 100 % of control.
As for `CCOC(Cn1nc(SC)nc1N)OCC`, the T/C (dose: 100.0 mg/kg/injection, schedule: Q04DX002 (ip), vehicle: water) was 108 % of control; the T/C (dose: 200.0 mg/kg/injection, schedule: Q04DX002 (ip), vehicle: water) was 104 % of control; the T/C (dose: 400.0 mg/kg/injection, schedule: Q04DX002 (ip), vehicle: water) was 109 % of control.
As for `C/C(=N\Nc1ccccn1)c1ccccn1`, the T/C (dose: 6.25 mg/kg/injection, schedule: Q01DX005 (ip), vehicle: saline with Tween-80) is 104 % of control; the T/C (dose: 12.5 mg/kg/injection, schedule: Q01DX005 (ip), vehicle: saline with Tween-80) was 100 % of control; the T/C (dose: 25.0 mg/kg/injection, schedule: Q01DX005 (ip), vehicle: saline with Tween-80) was 101 % of control.
`S=C(Nc1ccccc1)Nc1ccc(N(CCCl)CCCl)cc1`: the T/C runs as follows: (dose: 100.0 mg/kg/injection, schedule: Q04DX003 (ip), vehicle: Klucel (hydroxypropylcellulose) (HPC)) 106 % of control; (dose: 200.0 mg/kg/injection, schedule: Q04DX003 (ip), vehicle: Klucel (hydroxypropylcellulose) (HPC)) 114 % of control; (dose: 400.0 mg/kg/injection, schedule: Q04DX003 (ip), vehicle: Klucel (hydroxypropylcellulose) (HPC)) 111 % of control.
`NC(=O)CCC(N)C(=O)O.[Cl-].[Cl-].[Cl-].[Cl-].[Pt+2]` (stereo not given): the T/C runs as follows: (dose: 6.25 mg/kg/injection, schedule: Q01DX009 (ip), vehicle: saline) 107 % of control; (dose: 6.25 mg/kg/injection, schedule: Q01DX009 (ip), vehicle: water) 153 % of control; (dose: 11.0 mg/kg/injection, schedule: Q01DX009 (ip), vehicle: saline) 106 % of control; under setting [7], 110 % of control; (dose: 12.5 mg/kg/injection, schedule: Q01DX009 (ip), vehicle: water) 154 % of control and 155 % of control; (dose: 25.0 mg/kg/injection, schedule: Q01DX009 (ip), vehicle: water) 155 % of control. Moreover, the T/C is, setting by setting: (dose: 37.5 mg/kg/injection, schedule: Q01DX009 (ip), vehicle: saline) 157 % of control; under setting [8], 152 % of control.
For `CCOCCOCCOC12C(=O)C(Cl)=C(Cl)C(=O)C13C1CC2C(Cl)C13` (stereo not given), the T/C is 98 % of control under setting [7]; 105 % of control (dose: 25.0 mg/kg/injection, schedule: Q01DX009 (ip), vehicle: saline); 105 % of control and 106 % of control under setting [8].
Take `CNCc1nc2sc3c(c2c(=O)[nH]1)CCCC3`: the T/C is 97 % of control under setting [9], 105 % of control under setting [10] and 102 % of control under setting [11].
On to `CC1(C)SC(C(NC(=O)Cc2ccccc2)C(=O)O)NC1C(=O)O` (stereo not given), for which the T/C is 90 % of control (dose: 100.0 mg/kg/injection, schedule: Q04DX003 (ip), vehicle: saline with Tween-80); 100 % of control (dose: 200.0 mg/kg/injection, schedule: Q04DX003 (ip), vehicle: saline with Tween-80); 104 % of control (dose: 400.0 mg/kg/injection, schedule: Q04DX003 (ip), vehicle: saline with Tween-80).
As for `COc1nc(=O)n(C2CCCO2)cc1Br` (stereo not given), the T/C under setting [4] is 96 % of control, the T/C under setting [5] is 102 % of control and the T/C under setting [6] is 100 % of control.
As for `COC(=O)C1CC=CCC1C(=O)O` (stereo not given), the T/C by setting is: under setting [9], 93 % of control; under setting [10], 95 % of control; under setting [11], 99 % of control.
On to `Nc1nc(-c2ccccc2)nc2sc3c(c12)CCCC3`, for which the T/C by setting is: (dose: 50.0 mg/kg/injection, schedule: Q01DX005 (ip), vehicle: Klucel (hydroxypropylcellulose) (HPC)) 104 % of control; (dose: 100.0 mg/kg/injection, schedule: Q01DX005 (ip), vehicle: Klucel (hydroxypropylcellulose) (HPC)) 106 % of control; (dose: 200.0 mg/kg/injection, schedule: Q01DX005 (ip), vehicle: Klucel (hydroxypropylcellulose) (HPC)) 103 % of control.
On to `CCN(CC)CCOC(=O)/C=C\c1cccc2c(=O)cc(-c3ccccc3)oc12`, for which the T/C was 100 % of control under setting [8]; 101 % of control (dose: 100.0 mg/kg/injection, schedule: Q01DX009 (ip), vehicle: saline); 117 % of control (dose: 200.0 mg/kg/injection, schedule: Q01DX009 (ip), vehicle: saline).
